Data: patent publication US6635436B2, “Methods for the screening of non-recombinant cell lines capable of expressing a single PDE4 isoenzyme and for the screening of PDE4 inhibitors” (Warner-Lambert Company, priority 1999, dated 2003)

How the values were obtained:
PDE4D = experiment: Semi-quantitative RT-PCR of PDE4D expression in treated human cell lines; format: cell-based; conditions: control normalized to 1
Procedure: (§1) RNA was purified using Tripure™ Isolation Reagent, a single-step liquid phase separation issued from the total RNA isolation method developed by Chomczynski and Sacchi (1987). Washed and pelleted cells were resuspended at a concentration of 1×10^6 cells/ml Tripure and the total RNA extracted was quantified spectrophotometrically. RT-PCR was carried out using the commercial PCR ELISA Dig Labelling Kit. First strand cDNA was generated from 1 μg of total RNA per sample using random hexamers to prime the reverse transcription (First Strand cDNA Synthesis Kit for RT-PCR) and was directly amplified by PCR following the addition of specific primer pairs. Oligonucleotide primers were: PDE4A, 5′-[…]-3′ (SEQ ID N^o1) and 5′-[…]-3′ (SEQ ID N^o2), defining a 439-bp product; PDE4B, 5′-[…]-3′ and 5′-[…]-3′, defining a 327-bp product; PDE4C, 5′-[…]-3′ and 5′-[…]-3′ defining a 331-bp product; PDE4D, 5′-[…]-3′ and 5′-[…]-3′, defining a 339-bp product. The 5′-biotin-labelled capture probes used for the detection of PCR fragments were: 5′-[…]-3′ for PDE4A, 5′-[…]-3′ for PDE4B, 5′-[…]-3′ for PDE4C, 5′-[…]-3′ for PDE4D. Briefly, this PCR ELISA allows the specific detection of PCR products in a semi-quantitative microtiter plate format. The PCR products are labelled with digoxigenin during the amplification process (dig labelling). The labelled PCR products are analyzed by solution hybridization to a specific capture probe that is complementary to the inner part of the amplification product (dig detection). This capture probe is labelled with biotin to allow immobilization of the hybrid to a streptavidin coated microtiterplate surface. Unspecific amplification products will not hybridized to this capture probe and thus will be removed during the following washing steps; The bound hybrid is detected by an anti-digoxigenin peroxidase conjugate and by use of the calorimetric substrate ABTS. In comparison with suitable standards the color signal can be used for semi-quantitative evaluation of an amplification reaction. In our experiments the PDE4 subtypes PCR fragments amplified in the control cells (cells non treated with any of the compound tested), were our standards and the optical densities found for these PCR-fragments were normalized to 1.
(§2) All the cell lines used in this study were obtained from the European Collection of Cell Culture (ECACC). U-937, HT-29, HL-60, Jurkat, MOLT-4, HK-293, CACO2 were grown in RPMI 1640 medium supplemented with 10% (v/v) heat-inactivated calf serum at 37° C. in an humidified atmosphere of 95% air-5% CO2. […] Cells in suspension were seeded at 10^6 cells/ml and adherent ones were used when confluent. After the required incubation times, 10^6 cells were used for mRNA extraction and 2.5×10^8 for proteins extraction.
(§3) The control cells received 1% DMSO for 2 hours or 3 days. After treated, the cells were washed and prepared for mRNA extraction as described in the Materials and Methods section. PCR fragments were quantified by semi-quantitative PCR: The expression of the subtypes in control cells was normalized to 1 to allow expression of the data found in the treated cells as an x-fold increase or decrease expression of each subtype in comparison to the control value.
(§4) The expression of the subtypes in control cells was normalized to 1 to be able to express the data found in the treated cells as an x-fold increase or decrease expression of each subtype in comparison to the control value. The results obtained are summarised in table 2 and here again, none of the treatment used was able to induce the expression of a C subtype.

PDE4B = experiment: Semi-quantitative RT-PCR of PDE4B expression in treated human cell lines; format: cell-based; conditions: control normalized to 1
Procedure: as §1, §2, §3, §4

PDE4A = experiment: Semi-quantitative RT-PCR of PDE4A expression in treated human cell lines; format: cell-based; conditions: control normalized to 1
Procedure: as §1, §2, §3, §4

PDE 4D3 = experiment: Semi-quantitative RT-PCR of PDE4D3 expression in treated human cell lines; format: cell-based; conditions: control normalized to 1
Procedure: as §1, §2, §3, §4

PDE4 = experiment: Chromatographic resolution and assay of PDE activities in control and PMA-treated cells; format: cell-based, human; conditions: HL-60 cells treated with 1 μM PMA for 72 hours; control cells 0.14
Procedure: as §2
The adherent cells were disrupted by trypsinisation and along with the non-adherent cells were washed carefully at least twice with sterile PBS and counted. […]
Phosphodiesterase activities were assayed using a modification of the method described by Smith et al. (1993) utilizing the observation that 5′-nucleotides bind very strongly to alumina while the cyclic nucleotides are readily eluted at neutral or slightly alkaline pH. […] The separated [^3H]cAMP was back-corrected for recovery using the separated and non-separated ^14C values and expressed as a fraction of the total [^3H]cAMP to give the amount of substrate hydrolyzed.
These studies were conducted originally to set up PDE4 subtype cellular assays, for this reason the cell lines that were expressing either a single or majority of a single subtype after the different treatments, were analysed for their phosphodiesterase activities. […]

## C[C@@H]1C[C@H]2[C@@H]3CCC4=CC(=O)C=C[C@]4(C)[C@@]3(F)[C@@H](O)C[C@]2(C)[C@@]1(O)C(=O)CO [Dexamethasone, dexamethasone]
PDE4D; CACO-2 cells
  PDE4 subtype D x-fold change in expression vs control (number in brackets): 1 fold
PDE4D; HK-293 cells
  PDE4 subtype D x-fold change in expression vs control (number in brackets): 1 fold
PDE4D; HL-60 cells
  PDE4 subtype D x-fold change in expression vs control (number in brackets): 1 fold
PDE4D; HT-29 cells
  PDE4 subtype D x-fold change in expression vs control (number in brackets): 1 fold
PDE4D; Jurkat cells
  PDE4 subtype D x-fold change in expression vs control (number in brackets): 1 fold
PDE4D; Molt-4 cells
  PDE4 subtype D x-fold change in expression vs control (number in brackets): 1.1 fold
PDE4B; HK-293 cells
  PDE4 subtype B x-fold change in expression vs control (number in brackets): −1.5 fold
PDE4B; HL-60 cells
  PDE4 subtype B x-fold change in expression vs control (number in brackets): −1.2 fold
PDE4B; Jurkat cells
  PDE4 subtype B x-fold change in expression vs control (number in brackets): 1 fold
PDE4B; Molt-4 cells
  PDE4 subtype B x-fold change in expression vs control (number in brackets): 1 fold
PDE4A; CACO-2 cells
  PDE4 subtype A x-fold change in expression vs control (number in brackets): 1 fold
PDE4A; HK-293 cells
  PDE4 subtype A x-fold change in expression vs control (number in brackets): 1 fold
PDE4A; HL-60 cells
  PDE4 subtype A x-fold change in expression vs control (number in brackets): 1 fold
PDE4A; HT-29 cells
  PDE4 subtype A x-fold change in expression vs control (number in brackets): 1 fold
PDE4A; Jurkat cells
  PDE4 subtype A x-fold change in expression vs control (number in brackets): 1 fold
PDE4A; Molt-4 cells
  PDE4 subtype A x-fold change in expression vs control (number in brackets): 2 fold
PDE4A; Molt-4 cells, listed as dexamethasone
  PDE4 subtype A x-fold change in expression vs control (number in brackets): +2 fold
PDE 4D3; CACO-2 cells
  PDE4 D3 x-fold change in expression vs control (number in brackets): 1 fold
PDE 4D3; HK-293 cells
  PDE4 D3 x-fold change in expression vs control (number in brackets): 1 fold
PDE 4D3; HL-60 cells
  PDE4 D3 x-fold change in expression vs control (number in brackets): 1 fold
PDE 4D3; HT-29 cells
  PDE4 D3 x-fold change in expression vs control (number in brackets): 1 fold

## CCCCCCCCCCCCCC(=O)O[C@@H]1[C@@H](C)[C@@]2(O)[C@@H](C=C(CO)C[C@]3(O)C(=O)C(C)=C[C@@H]23)[C@@H]2C(C)(C)[C@]12OC(C)=O [PMA, phorbol myristate acetate]
PDE4D; HL-60 cells
  PDE4 subtype D x-fold change in expression vs control (number in brackets): −14.5 fold
PDE4D; HT-29 cells
  PDE4 subtype D x-fold change in expression vs control (number in brackets): 1.8 fold
PDE4D; Jurkat cells
  PDE4 subtype D x-fold change in expression vs control (number in brackets): −1.9 fold
PDE4D; Molt-4 cells
  PDE4 subtype D x-fold change in expression vs control (number in brackets): 1.1 fold
PDE4B; HK-293 cells
  PDE4 subtype B x-fold change in expression vs control (number in brackets): 1 fold
PDE4B; HL-60 cells
  PDE4 subtype B x-fold change in expression vs control (number in brackets): −12.2 fold
PDE4B; Jurkat cells
  PDE4 subtype B x-fold change in expression vs control (number in brackets): −2 fold
PDE4B; Molt-4 cells
  PDE4 subtype B x-fold change in expression vs control (number in brackets): 1 fold
PDE4A; CACO-2 cells
  PDE4 subtype A x-fold change in expression vs control (number in brackets): 1 fold
PDE4A; HK-293 cells
  PDE4 subtype A x-fold change in expression vs control (number in brackets): 1 fold
PDE4A; HT-29 cells
  PDE4 subtype A x-fold change in expression vs control (number in brackets): 1.5 fold
PDE4A; Jurkat cells
  PDE4 subtype A x-fold change in expression vs control (number in brackets): 1 fold
PDE4A; Molt-4 cells
  PDE4 subtype A x-fold change in expression vs control (number in brackets): −1.5 fold
PDE4
  maximum PDE4 activity: 0.9 pmol AMP formed/min/μl
PDE 4D3; CACO-2 cells
  PDE4 D3 x-fold change in expression vs control (number in brackets): −1.1 fold
PDE 4D3; HK-293 cells
  PDE4 D3 x-fold change in expression vs control (number in brackets): 1 fold
PDE 4D3; HT-29 cells
  PDE4 D3 x-fold change in expression vs control (number in brackets): 1 fold
